# Tests used:
# [1] = target: T1, HDAC6 human recombinant (Homo sapiens, UniProt Q9UBN7); experiment: HDAC enzyme activity inhibition (in vitro), HDAC6 assay; assay type: biochemical; settings: samples at 0.1, 1, 10, 100 and 1000 nM; 37° C. 60 minutes; fluorescence Ex 390, Em 460; read-out: HDAC6 IC50
# T1 construct: purchased Calbiochem 382180
# T1 sequence (Q9UBN7 1-1215): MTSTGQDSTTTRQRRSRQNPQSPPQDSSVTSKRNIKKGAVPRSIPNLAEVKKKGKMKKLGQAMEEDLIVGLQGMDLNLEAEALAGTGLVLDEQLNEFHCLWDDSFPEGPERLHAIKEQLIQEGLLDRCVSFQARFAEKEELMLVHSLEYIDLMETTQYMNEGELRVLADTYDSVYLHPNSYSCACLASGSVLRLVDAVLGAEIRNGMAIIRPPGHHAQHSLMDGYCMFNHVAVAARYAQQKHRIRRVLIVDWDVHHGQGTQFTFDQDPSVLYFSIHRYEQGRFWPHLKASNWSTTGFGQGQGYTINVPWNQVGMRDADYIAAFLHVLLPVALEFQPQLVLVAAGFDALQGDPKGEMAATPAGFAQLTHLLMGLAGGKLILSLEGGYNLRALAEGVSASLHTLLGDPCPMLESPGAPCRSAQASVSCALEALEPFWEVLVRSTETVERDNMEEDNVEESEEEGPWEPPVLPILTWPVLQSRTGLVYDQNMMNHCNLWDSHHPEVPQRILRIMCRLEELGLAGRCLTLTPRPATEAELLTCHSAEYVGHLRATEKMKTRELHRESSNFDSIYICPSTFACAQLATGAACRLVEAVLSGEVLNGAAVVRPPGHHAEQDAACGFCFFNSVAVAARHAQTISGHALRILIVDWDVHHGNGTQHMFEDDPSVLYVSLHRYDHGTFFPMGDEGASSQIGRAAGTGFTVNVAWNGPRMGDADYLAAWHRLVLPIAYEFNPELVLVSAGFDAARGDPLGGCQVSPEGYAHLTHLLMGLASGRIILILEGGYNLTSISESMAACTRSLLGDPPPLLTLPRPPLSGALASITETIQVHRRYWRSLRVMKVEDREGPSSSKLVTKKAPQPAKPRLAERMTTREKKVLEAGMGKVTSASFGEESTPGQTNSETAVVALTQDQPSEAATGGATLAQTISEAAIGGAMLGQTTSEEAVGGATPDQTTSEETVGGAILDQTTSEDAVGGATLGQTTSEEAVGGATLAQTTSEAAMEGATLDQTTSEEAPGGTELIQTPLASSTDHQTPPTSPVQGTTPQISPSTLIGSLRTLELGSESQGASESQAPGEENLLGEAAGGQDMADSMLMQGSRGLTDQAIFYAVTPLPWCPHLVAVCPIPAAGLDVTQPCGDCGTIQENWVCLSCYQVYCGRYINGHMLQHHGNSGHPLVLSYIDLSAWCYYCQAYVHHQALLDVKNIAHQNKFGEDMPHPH
# Outline: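 HDAC6 human recombinant enzyme with fluorimetric substrate; […]. Reaction 60 min at 37° C, then developer 30 min at 37° C; fluorescence read at Ex 390/Em 460.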
# [2] = target: T2, HDAC1 (Homo sapiens, UniProt Q13547); experiment: HDAC enzyme activity inhibition (in vitro), HDAC1 Fluorimetric Drug Discovery Assay Kit; assay type: biochemical; settings: samples at 100, 1000 and 10000 nM; 37° C. 60 minutes; fluorescence Ex 390, Em 460; read-out: HDAC1 IC50
# T2 construct: purchased Enzolifesciences BML-AK511
# Outline: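 Compound incubated with enzyme 60 min at 37° C, then developer 30 min at 37° C; fluorescence read at Ex 390/Em 460. HDAC1 via fluorimetric kit, compounds at 100, 1000 and 10000 nM; HDAC6 human recombinant, compounds at 0.1, 1, 10, 100 and 1000 nM.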
# T2 sequence (Q13547 whole entry): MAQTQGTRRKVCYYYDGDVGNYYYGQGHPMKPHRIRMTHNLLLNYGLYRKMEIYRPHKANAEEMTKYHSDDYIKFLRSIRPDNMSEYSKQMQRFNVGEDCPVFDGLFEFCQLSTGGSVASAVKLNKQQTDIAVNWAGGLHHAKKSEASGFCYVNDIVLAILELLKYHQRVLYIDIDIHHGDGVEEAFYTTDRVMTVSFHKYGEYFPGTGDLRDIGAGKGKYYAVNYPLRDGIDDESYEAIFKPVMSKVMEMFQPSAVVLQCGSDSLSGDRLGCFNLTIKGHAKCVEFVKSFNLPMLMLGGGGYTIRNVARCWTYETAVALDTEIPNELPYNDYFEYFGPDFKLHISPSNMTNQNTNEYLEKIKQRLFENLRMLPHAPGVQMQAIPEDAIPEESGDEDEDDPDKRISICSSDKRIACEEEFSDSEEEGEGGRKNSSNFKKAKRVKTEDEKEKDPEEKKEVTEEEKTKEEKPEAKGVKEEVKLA
IC50 [1] [µM],IC50 [2] [µM],Compound
0.08,> 10,"O=c1n(Cc2ccc(-c3nnc(C(F)F)o3)cc2F)c2cc(F)ccc2n1C1CCN(C2CCSCC2)CC1 [Compound 73, 3-(4-(5-(difluoromethyl)-1,3,4-oxadiazole-2-yl)-2-fluorobenzyl)-5-fluoro-1-(1-(tetrahydro-2H-thiopyran-4-yl)piperidine-4-yl)-1,3-dihydro-2H-benzo[d]imidazole-2-one]"
0.606,> 10,"Cc1noc(C)c1-c1ccc2c(c1)n(Cc1ccc(-c3nnc(C(F)F)o3)cc1)c(=O)n2C1CCN(C)CC1 [Compound 131, 3-(4-(5-(difluoromethyl)-1,3,4-oxadiazole-2-yl)benzyl)-5-(3,5-dimethylisooxazole-4-yl)-1-(1-methylpiperidine-4-yl)-1,3-dihydro-2H-benzo[d]imidazole-2-one]"
0.071,> 10,"Cn1c(=O)n(Cc2ccc(-c3nnc(C(F)F)o3)cc2F)c2cc(F)ccc21 [Compound 143, 3-(4-(5-(difluoromethyl)-1,3,4-oxadiazole-2-yl)-2-fluorobenzyl)-5-fluoro-1-methyl-1,3-dihydro-2H-benzo[d]imidazole-2-one]"
0.043,> 10,"O=c1oc2cc(-c3ccc(CN4CCOCC4)nc3)c(F)cc2n1Cc1ccc(-c2nnc(C(F)F)o2)cn1 [Compound 332, 3-((5-(5-(difluoromethyl)-1,3,4-oxadiazole-2-yl)pyridine-2-yl)methyl)-5-fluoro-6-(6-(morpholinomethyl)pyridine-3-yl)benzo[d]oxazole-2(3H)-one]"
0.16,> 10,"CN(C)CCn1c(=O)n(Cc2ccc(-c3nnc(C(F)F)o3)cn2)c2cc(F)c(-c3cccnc3)cc21 [Compound 326, 1-((5-(5-(difluoromethyl)-1,3,4-oxadiazole-2-yl)pyridine-2-yl)methyl)-3-(2-(dimethylamino)ethyl)-6-fluoro-5-(pyridine-3-yl)-1,3-dihydro-2H-benzo[d]imidazole-2-one]"
0.057,> 10,"CC(C)N1CCN(c2cc3c(cc2F)n(Cc2ccc(-c4nnc(C(F)F)o4)cn2)c(=O)n3C)CC1 [Compound 261, 1-((5-(5-(difluoromethyl)-1,3,4-oxadiazole-2-yl)pyridine-2-yl)methyl)-6-fluoro-5-(4-isopropylpiperazine-1-yl)-3-methyl-1,3-dihydro-2H-benzo[d]imidazole-2-one]"
0.008,> 10,"CN1CCC(n2c(=O)n(Cc3ccc(-c4nnc(C(F)F)o4)cn3)c3cc(F)c(-c4ccc5[nH]ncc5c4)cc32)CC1 [Compound 256, 1-((5-(5-(difluoromethyl)-1,3,4-oxadiazole-2-yl)pyridine-2-yl)methyl)-6-fluoro-5-(1H-indazole-5-yl)-3-(1-methylpiperidine-4-yl)-1,3-dihydro-2H-benzo[d]imidazole-2-one]"
0.018,> 10,"CN1CCC(n2c(=O)n(Cc3ccc(-c4nnc(C(F)F)o4)cn3)c3cc(F)c(-c4ccnn4C)cc32)CC1 [Compound 249, 1-((5-(5-(difluoromethyl)-1,3,4-oxadiazole-2-yl)pyridine-2-yl)methyl)-6-fluoro-5-(1-methyl-1H-pyrazole-5-yl)-3-(1-methylpiperidine-4-yl)-1,3-dihydro-2H-benzo[d]imidazole-2-one]"
0.016,> 10,"CN1CCC(n2c(=O)n(Cc3ccc(-c4nnc(C(F)F)o4)cn3)c3cc(F)c(-c4ccc(F)cc4F)cc32)CC1 [Compound 223, 1-((5-(5-(difluoromethyl)-1,3,4-oxadiazole-2-yl)pyridine-2-yl)methyl)-5-(2,4-difluorophenyl)-6-fluoro-3-(1-methylpiperidine-4-yl)-1,3-dihydro-2H-benzo[d]imidazole-2-one]"
0.037,> 10,"O=c1n(Cc2ccc(-c3nnc(C(F)F)o3)cc2F)c2cc(F)ccc2n1C1CCS(=O)(=O)CC1 [Compound 189, 3-(4-(5-(difluoromethyl)-1,3,4-oxadiazole-2-yl)-2-fluorobenzyl)-1-(1,1-dioxydotetrahydro-2H-thiopyran-4-yl)-5-fluoro-1,3-dihydro-2H-benzo[d]imidazole-2-one]"
0.091,> 10,"CC(C)(C)OC(=O)N1CCN(c2cc3oc(=O)n(Cc4ccc(-c5nnc(C(F)F)o5)cn4)c3cc2F)CC1 [Compound 316, tert-butyl 4-(3-((5-(5-(difluoromethyl)-1,3,4-oxadiazole-2-yl)pyridine-2-yl)methyl)-5-fluoro-2-oxo-2,3-dihydrobenzo[d]oxazole-6-yl)piperazine-1-carboxylate]"
0.102,> 10,"CN1CCC(c2ccc3c(c2)n(C2CCN(C)CC2)c(=O)n3Cc2ccc(-c3nnc(C(F)F)o3)cc2F)CC1 [Compound 156, 1-(4-(5-(difluoromethyl)-1,3,4-oxadiazole-2-yl)-2-fluorobenzyl)-3,5-bis(1-methylpiperidine-4-yl)-1,3-dihydro-2H-benzo[d]imidazole-2-one]"
0.195,> 10,"CN1CCC(n2c(=O)n(Cc3ccc(-c4nnc(C(F)F)o4)cn3)c3ccc(C4CCN(S(C)(=O)=O)CC4)cc32)CC1 [Compound 198, 1-((5-(5-(difluoromethyl)-1,3,4-oxadiazole-2-yl)pyridine-2-yl)methyl)-3-(1-methylpiperidine-4-yl)-5-(1-(methylsulfonyl)piperidine-4-yl)-1,3-dihydro-2H-benzo[d]imidazole-2-one]"
0.047,> 10,"CN1CCN(c2ncc(-c3cc4oc(=O)n(Cc5ccc(-c6nnc(C(F)F)o6)cn5)c4cc3F)cn2)CC1 [Compound 338, 3-((5-(5-(difluoromethyl)-1,3,4-oxadiazole-2-yl)pyridine-2-yl)methyl)-5-fluoro-6-(2-(4-methylpiperazine-1-yl)pyrimidine-5-yl)benzo[d]oxazole-2(3H)-one]"
0.118,> 10,"CC(=O)N1CCC(n2c(=O)n(Cc3ccc(-c4nnc(C(F)F)o4)cc3F)c3ccc(Cl)cc32)CC1 [Compound 182, 3-(1-acetylpiperidine-4-yl)-5-chloro-1-(4-(5-(difluoromethyl)-1,3,4-oxadiazole-2-yl)-2-fluorobenzyl)-1,3-dihydro-2H-benzo[d]imidazole-2-one]"
0.207,> 10,"Cc1cc2cc(-c3cc4c(cc3F)n(Cc3ccc(-c5nnc(C(F)F)o5)cn3)c(=O)n4C3CCN(C)CC3)ccc2n1C(=O)OC(C)(C)C [Compound 252, tert-butyl 5-(1-((5-(5-(difluoromethyl)-1,3,4-oxadiazole-2-yl)pyridine-2-yl)methyl)-6-fluoro-3-(1-methylpiperidine-4-yl)-2-oxo-2,3-dihydro-1H-benzo[d]imidazole-5-yl)-2-methyl-1H-indole-1-carboxylate]"
0.209,> 10,"CCN1CCC(n2c(=O)n(Cc3ccc(-c4nnc(C(F)F)o4)cc3F)c3ccccc32)CC1 [Compound 14, 1-(4-(5-(difluoromethyl)-1,3,4-oxadiazole-2-yl)-2-fluorobenzyl)-3-(1-ethylpiperidine-4-yl)-1,3-dihydro-2H-benzo[d]imidazole-2-one]"
0.028,> 10,"CN1CCC(n2c(=O)n(Cc3ccc(-c4nnc(C(F)F)o4)cc3F)c3cc(F)ccc32)CC1 [Compound 69, 3-(4-(5-(difluoromethyl)-1,3,4-oxadiazole-2-yl)-2-fluorobenzyl)-5-fluoro-1-(1-methylpiperidine-4-yl)-1,3-dihydro-2H-benzo[d]imidazole-2-one]"

# — patent US20230092890A1, “1, 3, 4-Oxadiazole derivative compounds as histone deacetylase 6 inhibitor, and the pharmaceutical composition comprising the same” (Chong Kun Dang Pharmaceutical Corp., priority 2019, published 2023)
